# Laboratory results from US20070128217A1 (priority 2003, published 2007).
# Legend:
# [1] = tested on: antibodies in sera from SARS patients (sera 1a, 1b, 2, 6, 37, 62, London, SARS-yellow, SARS-green); type: binding, human; set-up: Binding of serum 6 to linear peptides of protein X1 of SARS-CoV Urbani / Binding of serum 37 to linear peptides of protein X1 of SARS-CoV Urbani / Binding of serum 6 to looped/cyclic peptide (PEPSCAN-ELISA) / Binding of serum 37 to looped/cyclic peptide (PEPSCAN-ELISA) / Binding of serum 37 to looped/cyclic peptides of protein X1 of SARS-CoV Urbani / Binding of serum 6 to linear peptides of protein X2 / Binding of serum 37 to linear peptides of protein X2 / Binding of serum 37 to looped/cyclic peptides of protein X2 of SARS-CoV Urbani / Binding of serum 6 to linear peptides of protein M of SARS-CoV Urbani / Binding of serum 37 to linear peptides of protein M of SARS-CoV Urbani / Binding of serum 6 to looped/cyclic peptides of protein M of SARS-CoV Urbani / Binding of serum 37 to looped/cyclic peptides of protein M of SARS-CoV Urbani / Binding of serum 6 to linear peptides of protein X3 of SARS-CoV Urbani / Binding of serum 37 to linear peptides of protein X3 of SARS-CoV Urbani / Binding of serum 37 to looped/cyclic peptides of protein X3 of SARS-CoV Urbani / Binding of serum 6 to linear peptides of protein X4 of SARS-CoV Urbani / Binding of serum 37 to linear peptides of protein X4 of SARS-CoV Urbani / Binding of serum 37 to looped/cyclic peptides of protein X4 of SARS-CoV Urbani / Binding of serum 6 to linear peptides of protein X5 of SARS-CoV Urbani / Binding of serum 37 to linear peptides of protein X5 of SARS-CoV Urbani / Binding of serum 37 to looped/cyclic peptides of protein X5 of SARS-CoV Urbani / Binding of serum 6 to linear peptides of protein N of SARS-CoV Urbani / Binding of serum 37 to linear peptides of protein N of SARS-CoV Urbani / Binding of serum 6 to linear peptide (PEPSCAN-ELISA) / Binding of serum 1a to looped/cyclic peptides of protein N of SARS-CoV Urbani / Binding of serum 1b to looped/cyclic peptides of protein N of SARS-CoV Urbani / Binding of serum 2 to looped/cyclic peptides of protein N of SARS-CoV Urbani / Binding of serum 6 to looped/cyclic peptides of protein N of SARS-CoV Urbani / Binding of serum 37 to looped/cyclic peptides of protein N of SARS-CoV Urbani / Binding of serum 62 to looped/cyclic peptides of protein N of SARS-CoV Urbani / Binding of serum London to looped/cyclic peptides of protein N of SARS-CoV Urbani / Binding of serum SARS-green to looped/cyclic peptides of protein N of SARS-CoV Urbani: unit not given here
# [2] = tested on: control sera (pooled serum of ten healthy LUMC hospital workers; commercial negative donor pooled serum from the Dutch bloodbank); type: binding, human; set-up: Binding of Control serum LUMC to linear peptides / Binding of Control serum Blood-bank to linear peptides / Binding of Control serum LUMC to looped peptides / Binding of Control Serum Blood-Bank to Looped peptides / Binding of Control serum LUMC to linear peptides of the protein M of SARS-CoV Urbani / Binding of Control serum Blood-bank to linear peptides of the protein M of SARS-CoV Urbani / Binding of Control serum LUMC to looped peptides of the protein M of SARS-CoV Urbani / Binding of Control Serum Blood-Bank to Looped peptides of the protein M of SARS-CoV Urbani: unit not given here
# [3] = tested on: rabbit serum obtained by immunizing a rabbit with the SARS-CoV strain Frankfurt 1; type: binding; set-up: Binding of a rabbit serum to linear peptides / Binding of a rabbit serum to looped peptides / Rabbit serum linear peptides / Rabbit serum looped peptides / Binding of a rabbit serum to linear peptides of protein N of SARS-CoV Urbani (Rabbit serum linear peptides) / Binding of a rabbit serum to looped/cyclic peptides of protein N of SARS-CoV Urbani (Rabbit serum looped peptides): unit not given here
# [4] = tested on: recombinant human anti-SARS-CoV antibody 03-018; type: binding; set-up: Binding of antibody 03-018 to linear peptides of the N protein of SARS-CoV Urbani / Binding of antibody 03-018 to looped/cyclic peptides of the N protein of SARS-CoV Urbani: unit not given here
Sequence,Binding of serum 1a to looped/cyclic peptides of protein N of SARS-CoV Urbani [1],Binding of serum 1b to looped/cyclic peptides of protein N of SARS-CoV Urbani [1],Binding of serum 2 to looped/cyclic peptides of protein N of SARS-CoV Urbani [1],Binding of serum 6 to looped/cyclic peptides of protein N of SARS-CoV Urbani [1],Binding of serum 37 to looped/cyclic peptides of protein N of SARS-CoV Urbani [1],Binding of serum 62 to looped/cyclic peptides of protein N of SARS-CoV Urbani [1],Binding of serum London to looped/cyclic peptides of protein N of SARS-CoV Urbani [1],Binding of serum SARS-green to looped/cyclic peptides of protein N of SARS-CoV Urbani [1],Binding of serum SARS-yellow to looped/cyclic peptides of protein N of SARS-CoV Urbani [1],Binding of a rabbit serum to linear peptides of protein N of SARS-CoV Urbani (Rabbit serum linear peptides) [3],Binding of a rabbit serum to looped/cyclic peptides of protein N of SARS-CoV Urbani (Rabbit serum looped peptides) [3],Binding of antibody 03-018 to linear peptides of the N protein of SARS-CoV Urbani [4],Binding of antibody 03-018 to looped/cyclic peptides of the N protein of SARS-CoV Urbani [4],Binding of Control Serum Blood-Bank to Looped peptides [2],Binding of Control serum Blood-bank to linear peptides [2],Binding of Control serum LUMC to linear peptides [2],Binding of Control serum LUMC to looped peptides [2],Binding of serum 1a to linear peptide (PEPSCAN-ELISA) [1],Binding of serum 1b to linear peptide (PEPSCAN-ELISA) [1],Binding of serum 2 to linear peptide (PEPSCAN-ELISA) [1],other results
EPKKDKKKKTDEAQP,0.2,0.1,2.1,0.1,0.4,0.3,0.3,0.0,0.1,0.2,0.3,0.1,0.2,,,,,,,,Binding of serum 1a to linear peptides of protein N of SARS-CoV Urbani [1]: 0.2; Binding of serum 1b to linear peptides of protein N of SARS-CoV Urbani [1]: 0.1; Binding of serum 2 to linear peptides of protein N of SARS-CoV Urbani [1]: 2.4; Binding of serum 6 to linear peptides of protein N of SARS-CoV Urbani [1]: 0.2; Binding of serum 37 to linear peptides of protein N of SARS-CoV Urbani [1]: 0.7; Binding of serum 62 to linear peptides of protein N of SARS-CoV Urbani [1]: 0.7; Binding of serum London to linear peptides of protein N of SARS-CoV Urbani [1]: 0.7; Binding of serum SARS-green to linear peptides of protein N of SARS-CoV Urbani [1]: 0.5; Binding of serum SARS-yellow to linear peptides of protein N of SARS-CoV Urbani [1]: 0.6; Control Serum Blood-Bank Looped peptides [2]: 0.5; Control serum Blood-bank linear peptides [2]: 0.8; Control serum LUMC linear peptides [2]: 0.8; Control serum LUMC looped peptides [2]: 0.3
EQTQGNFGDQDLIRQ,0.3,0.1,0.4,0.3,0.2,0.3,0.3,1.3,0.3,0.2,0.0,0.1,0.0,0.6,1.0,1.0,0.6,,,,"Recognition of the peptide by sera of SARS-CoV infected individuals, and form (linear, looped/cyclic) in which it is recognized [1]: recognized in linear form"
ESKVSGKGQQQQGQT,0.6,0.4,0.8,0.4,0.7,0.7,0.8,0.7,0.9,0.1,0.6,0.1,0.2,1.1,0.7,0.8,0.9,0.2,0.1,0.2,Binding of serum 6 to linear peptide (PEPSCAN-ELISA) [1]: 0.2; Binding of serum 37 to linear peptide (PEPSCAN-ELISA) [1]: 0.6; Binding of serum 62 to linear peptide (PEPSCAN-ELISA) [1]: 0.7; Binding of serum London to linear peptide (PEPSCAN-ELISA) [1]: 0.5; Binding of serum SARS-green to linear peptide (PEPSCAN-ELISA) [1]: 0.4; Binding of serum SARS-yellow to linear peptide (PEPSCAN-ELISA) [1]: 0.7
ETALALLLLDRLNQL,0.4,0.3,0.4,0.2,0.7,0.6,0.5,0.4,0.5,0.4,0.6,0.1,0.3,0.8,0.5,0.5,0.7,0.2,0.1,0.1,Binding of serum 6 to linear peptide (PEPSCAN-ELISA) [1]: 0.1; Binding of serum 37 to linear peptide (PEPSCAN-ELISA) [1]: 0.6; Binding of serum 62 to linear peptide (PEPSCAN-ELISA) [1]: 0.4; Binding of serum London to linear peptide (PEPSCAN-ELISA) [1]: 0.5; Binding of serum SARS-green to linear peptide (PEPSCAN-ELISA) [1]: 0.3; Binding of serum SARS-yellow to linear peptide (PEPSCAN-ELISA) [1]: 0.5
